The IC50 is the concentration at which inhibition is half-maximal. In general, EC50 refers to the concentration at which the effect is half-maximal.

Calls of active or inactive are those of the source. The rule behind the calls is not given here.

For data set [1], the system named is Cynomolgus monkey. Put plainly: Induction of drowsiness in sc dosed cynomolgus monkey. It is filed as organism-based, Macaca fascicularis. The settings on record: in vivo.
Data set [2] concerns Cynomolgus monkey. The data set is described as follows: Induction of salivation in sc dosed cynomolgus monkey. It is filed as organism-based, Macaca fascicularis. The settings on record: in vivo.
Data set [3] concerns Cynomolgus monkey. Put plainly: Induction of vomiting in sc dosed cynomolgus monkey. It counts as organism-based, Macaca fascicularis. The conditions noted are these: in vivo.
The test system of data set [4] is Cynomolgus monkey. Put plainly: Cardiotoxicity in telemetered cynomolgus monkey assessed as increase in heart rate at 1.5 to 6 mg/kg, sc measured after 1 to 4 hrs by telemetry method. It is filed as toxicity, organism-based, Macaca fascicularis. Also on record: route subcutaneous. The settings on record: in vivo.
The subject of data set [5] is Cynomolgus monkey. Put plainly: Cardiotoxicity in telemetered cynomolgus monkey assessed as prolongation of QTc interval at 1.5 to 6 mg/kg, sc measured after 1 to 4 hrs by telemetry method. It counts as toxicity, organism-based, Macaca fascicularis. The settings on record: in vivo. Also on record: route subcutaneous.
Data set [6] concerns Cynomolgus monkey. The data set is described as follows: Cardiotoxicity in telemetered cynomolgus monkey assessed as increase in mean blood pressure at 1.5 to 6 mg/kg, sc measured after 1 to 4 hrs by telemetry method. The conditions noted are these: in vivo. The arrangement: route subcutaneous. It counts as toxicity, organism-based, Macaca fascicularis.
For data set [7], the system named is Mus musculus. The data set is described as follows: Induction of seizures in ddY mouse at 100 mg/kg, sc measured for 45 mins after drug injection. It is filed as organism-based. The arrangement: dose 100 mg/kg, route subcutaneous. The conditions noted are these: in vivo, 0.75 h.
Data set [8] deals with Mus musculus. The data set is described as follows: Induction of salivation in ddY mouse at 10 to 30 mg/kg, sc measured for 30 mins after drug administration. It is filed as organism-based. Also on record: dose 10-30 mg/kg, route subcutaneous. The settings on record: in vivo, 0.5 h.
Data set [9] deals with Rattus norvegicus. The data set is described as follows: Antipsychotic activity in Sprague-Dawley rats assessed as inhibition of apomorphine-induced prepulse inhibition deficit at 1 to 10 mg/kg, sc administered 15 mins prior to apomorphine injection measured after 15 mins. It is filed as functional, organism-based.
Data set [10] concerns Mus musculus. Put plainly: Antipsychotic activity in ddY mouse assessed as reversal of apomorphine-induced climbing behaviour at 0.3 to 3 mg/kg, sc administered 20 mins prior to apomorphine injection measured for 20 mins from 10 mins after apomorphine challenge. It counts as functional, organism-based.
Data set [11] deals with Rattus norvegicus. Put plainly: Potentiation of risperidone-induced catalepsy in Sprague-Dawley rats at 10 mg/kg, sc administered 15 mins after risperidone injection measured after 45 mins. It is filed as ADME, organism-based. Also on record: dose 10 mg/kg, route subcutaneous. The conditions noted are these: in vivo, 0.75 h.
In data set [12] the test system is Rattus norvegicus. Put plainly: Antipsychotic activity in Sprague-Dawley rats assessed as reversal of methamphetamine-induced hyperlocomotion at 0.6 mg/kg, sc administered 30 mins prior to methamphetamine injection measured for 80 mins from 10 mins after methamphetamine challenge in presence of 0.6 mg/kg, po risperidone. It counts as functional, organism-based.

In data set [13] the target is Voltage-gated inwardly rectifying potassium channel KCNH2 (Homo sapiens, UniProt Q12809). The data set is described as follows: Inhibition of human ERG assessed as decrease in tail current amplitude measured after 5 mins by whole cell patch clamp technique. Background: In patch-clamp work, channel activity is measured electrically.
Data set [14] addresses T1, Muscarinic acetylcholine receptor M5 (Homo sapiens) (UniProt P08912).
T1 sequence (whole entry): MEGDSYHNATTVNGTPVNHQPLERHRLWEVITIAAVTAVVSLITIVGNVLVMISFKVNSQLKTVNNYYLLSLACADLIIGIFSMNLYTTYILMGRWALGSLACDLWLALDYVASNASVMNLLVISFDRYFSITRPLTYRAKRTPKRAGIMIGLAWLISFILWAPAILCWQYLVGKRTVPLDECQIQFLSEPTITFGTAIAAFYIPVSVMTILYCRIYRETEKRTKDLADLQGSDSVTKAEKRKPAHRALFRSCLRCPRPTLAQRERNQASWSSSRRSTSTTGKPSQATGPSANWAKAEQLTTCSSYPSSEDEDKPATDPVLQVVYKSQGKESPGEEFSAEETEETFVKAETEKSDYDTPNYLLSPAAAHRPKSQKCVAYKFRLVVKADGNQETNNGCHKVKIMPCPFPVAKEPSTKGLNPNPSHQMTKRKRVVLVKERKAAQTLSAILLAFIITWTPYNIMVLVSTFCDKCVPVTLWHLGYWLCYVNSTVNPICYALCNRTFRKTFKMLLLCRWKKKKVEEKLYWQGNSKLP
Put plainly: Partial agonist activity at human M5 receptor in CHO cells assessed as calcium mobilization at 30 uM after 60 mins by FLIPR assay. It counts as functional, cell-based.

Data set [15] concerns the target Muscarinic acetylcholine receptor M3 (Homo sapiens) (UniProt P20309). The data set is described as follows: Partial agonist activity at human M3 receptor in CHO cells assessed as calcium mobilization at 30 uM after 60 mins by FLIPR assay. It is filed as functional, cell-based.
For data set [16], the target named is T2, Muscarinic acetylcholine receptor M2 (Homo sapiens) (UniProt P08172).
T2 sequence (whole entry): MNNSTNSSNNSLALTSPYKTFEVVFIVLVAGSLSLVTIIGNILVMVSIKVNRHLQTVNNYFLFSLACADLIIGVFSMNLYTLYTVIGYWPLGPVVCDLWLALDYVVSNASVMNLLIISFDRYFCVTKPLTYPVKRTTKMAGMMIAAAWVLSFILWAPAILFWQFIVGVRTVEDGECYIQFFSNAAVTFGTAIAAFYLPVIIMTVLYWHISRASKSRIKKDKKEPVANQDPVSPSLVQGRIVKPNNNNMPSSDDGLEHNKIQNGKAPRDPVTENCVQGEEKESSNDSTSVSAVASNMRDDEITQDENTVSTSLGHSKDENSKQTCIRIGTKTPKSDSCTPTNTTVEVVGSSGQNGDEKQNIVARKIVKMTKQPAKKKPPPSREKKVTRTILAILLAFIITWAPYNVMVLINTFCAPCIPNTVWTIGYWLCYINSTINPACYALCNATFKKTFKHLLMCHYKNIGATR
The data set is described as follows: Partial agonist activity at human M2 receptor co-expressed with Galpha16 in CHO cells assessed as calcium mobilization at 30 uM after 60 mins by FLIPR assay. It counts as functional, cell-based. For orientation: Calcium flux is commonly read through the fluorescence of an indicator in the cells.

Data set [17] deals with T3, Muscarinic acetylcholine receptor M1 (Homo sapiens) (UniProt P11229).
T3 sequence (whole entry): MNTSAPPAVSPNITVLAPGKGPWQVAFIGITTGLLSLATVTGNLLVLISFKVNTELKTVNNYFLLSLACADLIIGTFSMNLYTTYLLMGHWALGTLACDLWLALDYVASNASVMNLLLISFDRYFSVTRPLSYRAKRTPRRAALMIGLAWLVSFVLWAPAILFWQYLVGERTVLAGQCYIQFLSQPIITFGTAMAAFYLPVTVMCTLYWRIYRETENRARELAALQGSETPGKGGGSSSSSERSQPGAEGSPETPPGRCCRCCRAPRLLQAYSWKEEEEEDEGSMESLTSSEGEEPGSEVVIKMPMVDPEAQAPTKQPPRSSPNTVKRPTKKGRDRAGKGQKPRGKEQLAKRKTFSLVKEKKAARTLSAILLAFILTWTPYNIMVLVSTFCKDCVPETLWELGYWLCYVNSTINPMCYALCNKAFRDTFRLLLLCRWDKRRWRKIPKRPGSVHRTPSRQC
The data set is described as follows: (§1) Partial agonist activity at human M1 receptor in CHO cells assessed as calcium mobilization after 60 mins by FLIPR assay. It is filed as functional, cell-based.

For data set [18], the target named is T4, Muscarinic acetylcholine receptor M1 (Homo sapiens, UniProt P11229).
T4 sequence (P11229 whole entry): T3 sequence (whole entry)
The data set is described as §1. It counts as functional, cell-based.

The target in data set [19] is T1, Muscarinic acetylcholine receptor M5 (Homo sapiens). Put plainly: Partial agonist activity at human M5 receptor in CHO cells assessed as calcium mobilization at 3 uM after 60 mins by FLIPR assay. It is filed as functional, cell-based.
In data set [20] the target is T2, Muscarinic acetylcholine receptor M2 (Homo sapiens). Put plainly: Partial agonist activity at human M2 receptor co-expressed with Galpha16 in CHO cells assessed as calcium mobilization at 3 uM after 60 mins by FLIPR assay. It counts as functional, cell-based.
Data set [21] addresses Muscarinic acetylcholine receptor M3 (Homo sapiens) (UniProt P20309). Put plainly: Partial agonist activity at human M3 receptor in CHO cells assessed as calcium mobilization at 3 uM after 60 mins by FLIPR assay. It counts as functional, cell-based.
In data set [22] the target is T3, Muscarinic acetylcholine receptor M1 (Homo sapiens). Put plainly: Partial agonist activity at human M1 receptor in CHO cells assessed as calcium mobilization at 3 uM after 60 mins by FLIPR assay. It counts as functional, cell-based.

Chain of Muscarinic acetylcholine receptor M3 (Homo sapiens) (P20309 whole entry, looked up): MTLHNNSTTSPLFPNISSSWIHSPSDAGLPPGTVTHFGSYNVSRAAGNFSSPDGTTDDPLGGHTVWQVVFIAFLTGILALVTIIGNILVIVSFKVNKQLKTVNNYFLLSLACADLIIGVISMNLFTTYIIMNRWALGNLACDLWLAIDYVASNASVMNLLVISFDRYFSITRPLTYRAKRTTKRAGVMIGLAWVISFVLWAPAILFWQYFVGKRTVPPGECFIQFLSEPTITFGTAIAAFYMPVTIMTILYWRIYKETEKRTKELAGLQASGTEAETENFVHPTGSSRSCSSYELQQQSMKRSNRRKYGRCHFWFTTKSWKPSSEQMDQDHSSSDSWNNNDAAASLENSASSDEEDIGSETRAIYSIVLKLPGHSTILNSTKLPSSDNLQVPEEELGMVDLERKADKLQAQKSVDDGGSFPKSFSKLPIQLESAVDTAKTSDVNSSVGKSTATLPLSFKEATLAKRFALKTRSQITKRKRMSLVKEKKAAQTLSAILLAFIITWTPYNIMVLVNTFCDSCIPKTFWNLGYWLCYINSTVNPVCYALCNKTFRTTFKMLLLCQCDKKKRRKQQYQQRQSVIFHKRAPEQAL
Chain of Voltage-gated inwardly rectifying potassium channel KCNH2 (Q12809 whole entry): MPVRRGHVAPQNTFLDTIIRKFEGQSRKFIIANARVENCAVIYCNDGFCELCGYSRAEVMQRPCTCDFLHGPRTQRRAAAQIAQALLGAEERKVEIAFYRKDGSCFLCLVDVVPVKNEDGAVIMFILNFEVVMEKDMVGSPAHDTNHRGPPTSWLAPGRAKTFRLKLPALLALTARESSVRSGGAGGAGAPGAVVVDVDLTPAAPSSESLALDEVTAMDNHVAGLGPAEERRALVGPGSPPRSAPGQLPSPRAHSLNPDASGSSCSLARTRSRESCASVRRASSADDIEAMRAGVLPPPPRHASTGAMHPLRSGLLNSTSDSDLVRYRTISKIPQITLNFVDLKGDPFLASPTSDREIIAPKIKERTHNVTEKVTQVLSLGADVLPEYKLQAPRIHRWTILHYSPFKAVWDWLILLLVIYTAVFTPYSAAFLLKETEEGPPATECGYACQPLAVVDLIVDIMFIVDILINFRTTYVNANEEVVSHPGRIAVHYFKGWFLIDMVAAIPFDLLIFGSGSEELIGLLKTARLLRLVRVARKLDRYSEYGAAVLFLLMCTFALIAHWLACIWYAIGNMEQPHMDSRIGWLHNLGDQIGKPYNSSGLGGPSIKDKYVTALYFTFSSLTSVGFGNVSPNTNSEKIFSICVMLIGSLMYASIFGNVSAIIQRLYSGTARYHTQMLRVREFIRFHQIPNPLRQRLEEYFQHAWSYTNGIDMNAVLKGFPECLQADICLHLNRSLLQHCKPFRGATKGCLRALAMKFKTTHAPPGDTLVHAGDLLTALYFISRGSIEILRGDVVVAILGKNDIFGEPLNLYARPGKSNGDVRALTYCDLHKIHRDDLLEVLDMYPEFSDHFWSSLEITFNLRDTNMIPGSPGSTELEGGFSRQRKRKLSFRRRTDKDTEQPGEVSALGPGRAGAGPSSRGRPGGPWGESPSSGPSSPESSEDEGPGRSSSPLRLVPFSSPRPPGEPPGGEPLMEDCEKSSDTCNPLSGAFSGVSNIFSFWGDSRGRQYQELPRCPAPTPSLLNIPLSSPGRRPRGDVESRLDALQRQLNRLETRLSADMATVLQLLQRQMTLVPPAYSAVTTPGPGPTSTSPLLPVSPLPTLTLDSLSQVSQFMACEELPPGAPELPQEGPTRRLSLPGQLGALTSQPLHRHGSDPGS

For the molecule `CCOC(=O)N1[C@@H]2CC[C@H]1C[C@H](CN1CC[C@H](N3C(=O)Cc4ccccc43)C1)C2`, the Activity entry in [1] is reported as “Non-toxic”; in data set [2], “Toxic”; in data set [3], “Non-toxic”; in data set [4], “Toxic”; in data set [5], “Non-toxic”; in data set [6] it was “Non-toxic”. Moreover, the Activity entry is “Non-toxic” in data set [7]; “Non-toxic” in [8]; “Non-toxic” in [11]; 17% in data set [19]; 25% in [20]; 7% in [21]. Also, the Activity in data set [22] turned out to be 63%. The inhibition entry in [9], in data set [10] and in data set [12] was “Active” throughout. Moreover, the IC50 in [13] stood at 2400 nM. Besides, the outcome in data set [14], in data set [15] and in data set [16] was inactive. Also, the Intrinsic activity in data set [17] was found to be 60%. Moreover, the EC50 in data set [18] turned out to be 12 nM.

Source of the values: ChEMBL document CHEMBL2331215, “Discovery of novel N-substituted oxindoles as selective m1 and m4 muscarinic acetylcholine receptors partial agonists” (ACS Med Chem Lett, 2013).
